Laboratory results reported in ChEMBL document CHEMBL5653631, “A Potent and Selective ULK1 Inhibitor Suppresses Autophagy and Sensitizes Cancer Cells to Nutrient Stress” (iScience, 2018).

Legend:
[1] = molecular target: Platelet-derived growth factor receptor alpha (Homo sapiens) (UniProt P16234); experiment: Inhibition of human recombinant PDGFRa at 40 nM in presence of ATP by radiometric assay relative to control
[2] = molecular target: Protein kinase C eta type (Homo sapiens) (UniProt P24723); experiment: Inhibition of human recombinant PKCH at 40 nM in presence of ATP by radiometric assay relative to control
Protein kinase C eta type (Homo sapiens), sequence (P24723 whole entry): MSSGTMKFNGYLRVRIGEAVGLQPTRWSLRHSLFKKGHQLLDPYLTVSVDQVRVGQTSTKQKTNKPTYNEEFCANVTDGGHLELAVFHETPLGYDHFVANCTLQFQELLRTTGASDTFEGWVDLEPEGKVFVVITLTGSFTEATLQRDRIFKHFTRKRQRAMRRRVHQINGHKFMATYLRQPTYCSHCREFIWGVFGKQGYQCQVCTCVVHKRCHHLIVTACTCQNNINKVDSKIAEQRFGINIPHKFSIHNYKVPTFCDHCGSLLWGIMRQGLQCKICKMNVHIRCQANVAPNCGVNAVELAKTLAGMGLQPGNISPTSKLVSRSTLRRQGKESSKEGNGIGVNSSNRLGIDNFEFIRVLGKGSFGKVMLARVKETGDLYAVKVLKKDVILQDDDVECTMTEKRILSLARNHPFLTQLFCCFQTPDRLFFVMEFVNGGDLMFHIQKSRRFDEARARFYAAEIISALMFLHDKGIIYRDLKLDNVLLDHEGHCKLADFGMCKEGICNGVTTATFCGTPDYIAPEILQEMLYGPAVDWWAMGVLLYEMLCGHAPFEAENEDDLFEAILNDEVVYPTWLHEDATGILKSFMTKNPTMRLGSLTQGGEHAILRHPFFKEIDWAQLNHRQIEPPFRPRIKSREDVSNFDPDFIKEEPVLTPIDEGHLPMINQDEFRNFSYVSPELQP

[3] = molecular target: Serine/threonine-protein kinase 4 (Homo sapiens) (UniProt Q13043); experiment: Inhibition of human recombinant MST1 at 40 nM in presence of ATP by radiometric assay relative to control
Serine/threonine-protein kinase 4 (Homo sapiens), sequence (Q13043 whole entry, looked up): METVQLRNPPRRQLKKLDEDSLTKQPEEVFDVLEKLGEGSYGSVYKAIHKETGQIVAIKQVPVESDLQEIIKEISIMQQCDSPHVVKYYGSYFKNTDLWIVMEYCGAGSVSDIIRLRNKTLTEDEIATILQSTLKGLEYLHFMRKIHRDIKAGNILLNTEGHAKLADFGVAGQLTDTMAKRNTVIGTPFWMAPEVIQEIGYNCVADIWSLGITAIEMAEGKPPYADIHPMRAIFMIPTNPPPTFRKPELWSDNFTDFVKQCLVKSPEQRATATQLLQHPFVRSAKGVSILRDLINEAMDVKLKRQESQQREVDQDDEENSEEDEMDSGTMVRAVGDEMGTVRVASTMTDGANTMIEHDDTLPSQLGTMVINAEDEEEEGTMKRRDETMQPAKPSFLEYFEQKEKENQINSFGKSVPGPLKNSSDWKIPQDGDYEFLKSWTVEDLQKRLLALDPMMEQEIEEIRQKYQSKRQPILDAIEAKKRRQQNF

[4] = molecular target: T1, Serine/threonine-protein kinase TAO3 (Homo sapiens) (UniProt Q9H2K8); experiment: Inhibition of human recombinant TAO3 at 500 nM in presence of ATP by radiometric assay relative to control
T1 sequence (whole entry): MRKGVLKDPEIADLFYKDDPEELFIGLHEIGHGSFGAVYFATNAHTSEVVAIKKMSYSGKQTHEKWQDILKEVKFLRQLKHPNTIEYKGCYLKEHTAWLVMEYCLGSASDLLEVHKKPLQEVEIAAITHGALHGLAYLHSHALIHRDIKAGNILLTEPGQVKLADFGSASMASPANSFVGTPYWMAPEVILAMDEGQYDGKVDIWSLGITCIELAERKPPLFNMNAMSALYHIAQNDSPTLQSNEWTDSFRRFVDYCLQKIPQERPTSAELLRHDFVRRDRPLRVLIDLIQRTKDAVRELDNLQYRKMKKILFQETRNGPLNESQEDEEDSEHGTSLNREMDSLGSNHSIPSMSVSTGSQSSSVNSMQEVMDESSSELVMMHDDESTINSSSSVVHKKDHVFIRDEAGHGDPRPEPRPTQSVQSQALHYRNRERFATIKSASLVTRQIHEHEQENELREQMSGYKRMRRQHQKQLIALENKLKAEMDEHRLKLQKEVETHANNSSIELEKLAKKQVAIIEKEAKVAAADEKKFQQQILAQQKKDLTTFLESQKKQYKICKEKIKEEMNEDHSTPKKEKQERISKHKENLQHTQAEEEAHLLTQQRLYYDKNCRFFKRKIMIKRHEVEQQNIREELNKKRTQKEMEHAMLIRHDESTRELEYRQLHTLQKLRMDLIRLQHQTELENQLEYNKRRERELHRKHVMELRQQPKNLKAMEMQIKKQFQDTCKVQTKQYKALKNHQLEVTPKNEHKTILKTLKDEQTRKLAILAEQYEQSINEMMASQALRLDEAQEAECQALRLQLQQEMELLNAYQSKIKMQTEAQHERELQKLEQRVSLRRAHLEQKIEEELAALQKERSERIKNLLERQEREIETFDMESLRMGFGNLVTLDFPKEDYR

[5] = molecular target: Mitogen-activated protein kinase kinase kinase kinase 1 (Homo sapiens) (UniProt Q92918); experiment: Inhibition of human recombinant HPK1 at 500 nM related to control ULK1
Mitogen-activated protein kinase kinase kinase kinase 1 (Homo sapiens), sequence (Q92918 whole entry, looked up): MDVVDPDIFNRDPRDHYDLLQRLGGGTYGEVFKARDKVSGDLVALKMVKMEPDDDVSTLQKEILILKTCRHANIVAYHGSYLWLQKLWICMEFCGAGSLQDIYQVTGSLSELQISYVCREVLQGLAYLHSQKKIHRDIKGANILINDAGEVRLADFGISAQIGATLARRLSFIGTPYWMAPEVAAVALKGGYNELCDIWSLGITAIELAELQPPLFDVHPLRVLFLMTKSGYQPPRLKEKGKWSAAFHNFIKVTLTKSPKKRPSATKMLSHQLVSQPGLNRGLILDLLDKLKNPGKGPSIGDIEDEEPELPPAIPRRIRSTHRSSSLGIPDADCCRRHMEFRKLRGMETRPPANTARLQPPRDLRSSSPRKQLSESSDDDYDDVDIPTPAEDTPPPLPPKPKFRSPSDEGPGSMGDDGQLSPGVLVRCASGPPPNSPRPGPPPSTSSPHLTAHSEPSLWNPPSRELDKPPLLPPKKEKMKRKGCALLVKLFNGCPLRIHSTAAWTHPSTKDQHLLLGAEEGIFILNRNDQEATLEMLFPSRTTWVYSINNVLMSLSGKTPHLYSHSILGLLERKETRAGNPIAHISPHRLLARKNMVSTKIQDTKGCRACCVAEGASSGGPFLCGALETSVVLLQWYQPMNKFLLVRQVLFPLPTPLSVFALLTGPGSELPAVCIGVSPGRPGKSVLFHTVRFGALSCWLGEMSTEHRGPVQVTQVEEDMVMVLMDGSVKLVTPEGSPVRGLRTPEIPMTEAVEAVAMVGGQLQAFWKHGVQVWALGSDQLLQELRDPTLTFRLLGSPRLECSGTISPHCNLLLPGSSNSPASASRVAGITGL

[6] = molecular target: T2, Serine/threonine-protein kinase Nek1 (Homo sapiens) (UniProt Q96PY6); experiment: Inhibition of human recombinant NEK1 at 15 nM in presence of ATP by radiometric assay relative to control
T2 sequence (whole entry): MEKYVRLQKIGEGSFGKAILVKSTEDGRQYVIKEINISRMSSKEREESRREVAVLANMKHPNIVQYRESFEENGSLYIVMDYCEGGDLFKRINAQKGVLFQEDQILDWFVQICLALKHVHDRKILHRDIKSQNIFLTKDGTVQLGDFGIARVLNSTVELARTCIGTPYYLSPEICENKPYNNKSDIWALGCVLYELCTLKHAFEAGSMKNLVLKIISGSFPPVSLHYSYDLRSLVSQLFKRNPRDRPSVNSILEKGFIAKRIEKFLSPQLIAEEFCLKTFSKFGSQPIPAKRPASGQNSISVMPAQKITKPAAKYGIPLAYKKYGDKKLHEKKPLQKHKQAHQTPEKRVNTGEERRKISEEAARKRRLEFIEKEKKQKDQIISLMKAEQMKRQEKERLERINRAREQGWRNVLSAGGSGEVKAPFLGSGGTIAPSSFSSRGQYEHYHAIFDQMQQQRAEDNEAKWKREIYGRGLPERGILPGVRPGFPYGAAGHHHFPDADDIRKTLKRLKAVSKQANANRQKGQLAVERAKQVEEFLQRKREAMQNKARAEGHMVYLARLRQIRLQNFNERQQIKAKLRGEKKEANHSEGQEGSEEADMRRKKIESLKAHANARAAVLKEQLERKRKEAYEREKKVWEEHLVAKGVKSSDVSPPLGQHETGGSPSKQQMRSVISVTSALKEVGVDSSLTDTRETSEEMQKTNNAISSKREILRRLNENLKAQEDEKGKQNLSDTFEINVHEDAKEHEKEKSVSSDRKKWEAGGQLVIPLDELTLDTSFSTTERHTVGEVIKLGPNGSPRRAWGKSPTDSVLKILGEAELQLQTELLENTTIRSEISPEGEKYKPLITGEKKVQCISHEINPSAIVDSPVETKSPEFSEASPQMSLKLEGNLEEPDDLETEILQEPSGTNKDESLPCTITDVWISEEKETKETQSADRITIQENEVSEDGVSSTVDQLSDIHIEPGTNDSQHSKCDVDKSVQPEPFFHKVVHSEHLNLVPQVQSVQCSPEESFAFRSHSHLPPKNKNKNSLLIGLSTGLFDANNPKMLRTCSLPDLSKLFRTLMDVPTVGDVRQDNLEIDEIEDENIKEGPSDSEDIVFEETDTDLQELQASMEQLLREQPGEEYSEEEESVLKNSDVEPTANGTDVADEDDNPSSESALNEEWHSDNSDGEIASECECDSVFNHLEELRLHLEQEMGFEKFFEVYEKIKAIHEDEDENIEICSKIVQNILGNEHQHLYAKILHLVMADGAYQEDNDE

Platelet-derived growth factor receptor alpha (Homo sapiens), sequence (P16234 whole entry): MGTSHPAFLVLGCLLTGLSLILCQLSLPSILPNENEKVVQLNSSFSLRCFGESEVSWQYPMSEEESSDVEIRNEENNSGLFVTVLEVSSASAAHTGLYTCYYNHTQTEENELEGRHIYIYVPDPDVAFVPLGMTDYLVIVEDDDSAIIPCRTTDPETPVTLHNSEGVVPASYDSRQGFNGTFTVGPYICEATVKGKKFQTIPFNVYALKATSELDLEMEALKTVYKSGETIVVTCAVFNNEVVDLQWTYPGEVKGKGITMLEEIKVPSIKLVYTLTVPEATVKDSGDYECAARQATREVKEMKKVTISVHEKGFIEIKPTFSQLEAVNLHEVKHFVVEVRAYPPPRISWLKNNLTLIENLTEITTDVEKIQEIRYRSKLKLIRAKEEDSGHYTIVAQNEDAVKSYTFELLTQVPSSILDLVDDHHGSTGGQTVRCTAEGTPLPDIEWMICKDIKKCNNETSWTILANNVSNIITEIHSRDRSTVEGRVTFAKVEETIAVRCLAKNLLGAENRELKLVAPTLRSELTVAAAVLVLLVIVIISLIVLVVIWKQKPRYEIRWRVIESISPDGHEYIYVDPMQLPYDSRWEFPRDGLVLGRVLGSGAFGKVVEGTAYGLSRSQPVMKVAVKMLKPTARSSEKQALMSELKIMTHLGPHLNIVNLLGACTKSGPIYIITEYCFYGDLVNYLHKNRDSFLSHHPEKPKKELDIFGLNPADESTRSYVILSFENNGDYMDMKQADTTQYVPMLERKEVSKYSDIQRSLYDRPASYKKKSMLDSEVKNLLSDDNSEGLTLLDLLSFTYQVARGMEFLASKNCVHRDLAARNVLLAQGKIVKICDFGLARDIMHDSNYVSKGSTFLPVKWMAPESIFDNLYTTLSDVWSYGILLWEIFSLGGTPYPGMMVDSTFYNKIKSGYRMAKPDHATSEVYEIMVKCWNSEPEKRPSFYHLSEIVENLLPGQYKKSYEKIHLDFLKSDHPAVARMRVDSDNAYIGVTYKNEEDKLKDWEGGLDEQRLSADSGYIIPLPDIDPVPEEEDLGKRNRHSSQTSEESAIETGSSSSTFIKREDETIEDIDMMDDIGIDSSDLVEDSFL

O=C(N[C@@H](C1CC1)C(F)(F)F)c1cc(-c2cnn3cc(-c4ccc(F)cc4)cnc23)cs1
inhibition [1]: 0% | inhibition [2]: 0% | inhibition [3]: 0%

CNC(=O)c1ccccc1Oc1nc(Nc2cc(OC)c(OC)c(OC)c2)ncc1Br
inhibition [4]: 0% | fold change (FC) [5]: 0.43

CC(C)[C@H](NC(=O)c1cc(-c2cnn3cc(-c4ccc(OCCN5CCCCC5)cc4)cnc23)cs1)C(F)(F)F
inhibition [6]: 3%
